# PubChem BioAssay (NCI)
#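 How tested: cells in 96-well plates exposed to compound for 48 hours at five concentrations. GI50 marks 50% less growth. TGI denotes the concentration required for complete inhibition of growth.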
# Key:
# Test in all cases: DTP human tumour cell line panel, 48 h
# KM12 colon = tested on: KM12 colon
# OVCAR-3 ovarian = tested on: OVCAR-3 ovarian
# UACC-62 melanoma = tested on: UACC-62 melanoma
# ACHN renal = tested on: ACHN renal
# BT-549 breast = tested on: BT-549 breast
# NCI-H23 lung = tested on: NCI-H23 lung
# CAKI-1 renal = tested on: CAKI-1 renal
# SNB-75 CNS = tested on: SNB-75 CNS
# SK-MEL-2 melanoma = tested on: SK-MEL-2 melanoma
# SF-539 CNS = tested on: SF-539 CNS
# A549 NSCLC = tested on: A549 NSCLC
# SR leukemia = tested on: SR leukemia
# HOP-62 NSCLC = tested on: HOP-62 NSCLC
# MDA-MB-435 = tested on: MDA-MB-435
# SK-MEL-5 melanoma = tested on: SK-MEL-5 melanoma
# MOLT-4 leukemia = tested on: MOLT-4 leukemia
# HOP-92 NSCLC = tested on: HOP-92 NSCLC
# DU-145 prostate = tested on: DU-145 prostate
# A498 renal = tested on: A498 renal
# HL-60(TB) leukemia = tested on: HL-60(TB) leukemia
# T-47D breast = tested on: T-47D breast
# MALME-3M melanoma = tested on: MALME-3M melanoma
# TK-10 renal = tested on: TK-10 renal
# SNB-19 CNS = tested on: SNB-19 CNS
# UACC-257 melanoma = tested on: UACC-257 melanoma
# OVCAR-8 ovarian = tested on: OVCAR-8 ovarian
# NCI/ADR-RES ovarian = tested on: NCI/ADR-RES ovarian
# RXF 393 renal = tested on: RXF 393 renal
# HCT-15 colon = tested on: HCT-15 colon
# SK-OV-3 ovarian = tested on: SK-OV-3 ovarian
# MCF7 breast = tested on: MCF7 breast
# NCI-H226 lung = tested on: NCI-H226 lung
# OVCAR-5 ovarian = tested on: OVCAR-5 ovarian
# HCC-2998 colon = tested on: HCC-2998 colon
# HCT-116 colon = tested on: HCT-116 colon
# SF-295 CNS = tested on: SF-295 CNS
# SF-268 CNS = tested on: SF-268 CNS
# OVCAR-4 ovarian = tested on: OVCAR-4 ovarian
# SN12C renal = tested on: SN12C renal
# PC-3 prostate = tested on: PC-3 prostate
# MDA-MB-231 breast = tested on: MDA-MB-231 breast
# SK-MEL-28 melanoma = tested on: SK-MEL-28 melanoma
# K-562 leukemia = tested on: K-562 leukemia
# M14 melanoma = tested on: M14 melanoma
# 786-0 renal = tested on: 786-0 renal
# EKVX NSCLC = tested on: EKVX NSCLC
# CCRF-CEM leukemia = tested on: CCRF-CEM leukemia
# SW-620 colon = tested on: SW-620 colon
# COLO 205 colon = tested on: COLO 205 colon
# HS 578T breast = tested on: HS 578T breast
# U251 CNS = tested on: U251 CNS
# RPMI-8226 leukemia = tested on: RPMI-8226 leukemia
# HT29 colon = tested on: HT29 colon
# IGROV1 ovarian = tested on: IGROV1 ovarian
# NCI-H522 lung = tested on: NCI-H522 lung
# UO-31 renal = tested on: UO-31 renal
# NCI-H460 lung = tested on: NCI-H460 lung
smiles,measurement,setting,value
Oc1ccc(CCNc2nc3ccccc3c3[nH]c4ccccc4c23)cc1,GI50,KM12 colon,1.2 µM
same,TGI,KM12 colon,2.98 µM
same,GI50,OVCAR-3 ovarian,1.6 µM
same,TGI,OVCAR-3 ovarian,3.24 µM
same,GI50,UACC-62 melanoma,1.66 µM
same,TGI,UACC-62 melanoma,3.04 µM
same,GI50,ACHN renal,1.27 µM
same,TGI,ACHN renal,2.52 µM
same,GI50,BT-549 breast,1.93 µM
same,TGI,BT-549 breast,3.69 µM
same,GI50,NCI-H23 lung,1.96 µM
same,TGI,NCI-H23 lung,4.27 µM
same,GI50,CAKI-1 renal,1.59 µM
same,TGI,CAKI-1 renal,3.76 µM
same,GI50,SNB-75 CNS,1.81 µM
same,TGI,SNB-75 CNS,3.82 µM
same,GI50,SK-MEL-2 melanoma,1.73 µM
same,TGI,SK-MEL-2 melanoma,3.36 µM
same,GI50,SF-539 CNS,1.73 µM
same,TGI,SF-539 CNS,3.19 µM
same,GI50,A549 NSCLC,1.33 µM
same,TGI,A549 NSCLC,2.75 µM
same,GI50,SR leukemia,1.48 µM
same,TGI,SR leukemia,> 100 µM
same,GI50,HOP-62 NSCLC,1.63 µM
same,TGI,HOP-62 NSCLC,3.35 µM
same,GI50,MDA-MB-435,1.6 µM
same,TGI,MDA-MB-435,3.16 µM
same,GI50,SK-MEL-5 melanoma,1.75 µM
same,TGI,SK-MEL-5 melanoma,3.15 µM
same,GI50,MOLT-4 leukemia,0.472 µM
same,TGI,MOLT-4 leukemia,> 100 µM
same,GI50,HOP-92 NSCLC,1.3 µM
same,TGI,HOP-92 NSCLC,2.82 µM
same,GI50,DU-145 prostate,1.45 µM
same,TGI,DU-145 prostate,3.42 µM
same,GI50,A498 renal,11.5 µM
same,TGI,A498 renal,23.8 µM
same,GI50,HL-60(TB) leukemia,2.4 µM
same,TGI,HL-60(TB) leukemia,5.41 µM
same,GI50,T-47D breast,1.94 µM
same,TGI,T-47D breast,6.34 µM
same,GI50,MALME-3M melanoma,1.79 µM
same,TGI,MALME-3M melanoma,3.46 µM
same,GI50,TK-10 renal,1.75 µM
same,TGI,TK-10 renal,3.3 µM
same,GI50,SNB-19 CNS,1.83 µM
same,TGI,SNB-19 CNS,5.3 µM
same,GI50,UACC-257 melanoma,1.94 µM
same,TGI,UACC-257 melanoma,3.46 µM
same,GI50,OVCAR-8 ovarian,1.02 µM
same,TGI,OVCAR-8 ovarian,2.29 µM
same,GI50,NCI/ADR-RES ovarian,2.68 µM
same,TGI,NCI/ADR-RES ovarian,9.28 µM
same,GI50,RXF 393 renal,1.25 µM
same,TGI,RXF 393 renal,2.66 µM
same,GI50,HCT-15 colon,1.16 µM
same,TGI,HCT-15 colon,2.93 µM
same,GI50,SK-OV-3 ovarian,13.7 µM
same,TGI,SK-OV-3 ovarian,27 µM
same,GI50,MCF7 breast,1.37 µM
same,TGI,MCF7 breast,3.16 µM
same,GI50,NCI-H226 lung,2.65 µM
same,TGI,NCI-H226 lung,7.3 µM
same,GI50,OVCAR-5 ovarian,2.89 µM
same,TGI,OVCAR-5 ovarian,7.18 µM
same,GI50,HCC-2998 colon,1.56 µM
same,TGI,HCC-2998 colon,3.02 µM
same,GI50,HCT-116 colon,1.22 µM
same,TGI,HCT-116 colon,2.89 µM
same,GI50,SF-295 CNS,1.38 µM
same,TGI,SF-295 CNS,2.87 µM
same,GI50,SF-268 CNS,1.71 µM
same,TGI,SF-268 CNS,5.01 µM
same,GI50,OVCAR-4 ovarian,1.66 µM
same,TGI,OVCAR-4 ovarian,3.15 µM
same,GI50,SN12C renal,1.27 µM
same,TGI,SN12C renal,2.62 µM
same,GI50,PC-3 prostate,1.63 µM
same,TGI,PC-3 prostate,3.31 µM
same,GI50,MDA-MB-231 breast,1.36 µM
same,TGI,MDA-MB-231 breast,2.97 µM
same,GI50,SK-MEL-28 melanoma,1.61 µM
same,TGI,SK-MEL-28 melanoma,2.98 µM
same,GI50,K-562 leukemia,1.91 µM
same,TGI,K-562 leukemia,> 100 µM
same,GI50,M14 melanoma,1.73 µM
same,TGI,M14 melanoma,3.26 µM
same,GI50,786-0 renal,1.29 µM
same,TGI,786-0 renal,2.69 µM
same,GI50,EKVX NSCLC,1.91 µM
same,TGI,EKVX NSCLC,3.95 µM
COc1ccc(-c2ccc(/C=N/n3c(COc4ccc(Cl)c(C)c4)nn(CN4CCOCC4)c3=S)o2)c([N+](=O)[O-])c1,GI50,KM12 colon,29.1 µM
same,TGI,KM12 colon,> 100 µM
same,GI50,OVCAR-3 ovarian,17.3 µM
same,TGI,OVCAR-3 ovarian,44.8 µM
same,GI50,UACC-62 melanoma,30.8 µM
same,TGI,UACC-62 melanoma,> 100 µM
same,GI50,ACHN renal,39.1 µM
same,TGI,ACHN renal,> 100 µM
same,GI50,BT-549 breast,34.6 µM
same,TGI,BT-549 breast,85 µM
same,GI50,NCI-H23 lung,20.2 µM
same,TGI,NCI-H23 lung,51.6 µM
same,GI50,CAKI-1 renal,23.6 µM
same,TGI,CAKI-1 renal,57.1 µM
same,GI50,CCRF-CEM leukemia,19.3 µM
same,TGI,CCRF-CEM leukemia,56.2 µM
same,GI50,SW-620 colon,19.9 µM
same,TGI,SW-620 colon,48.9 µM
same,GI50,SF-539 CNS,22 µM
same,TGI,SF-539 CNS,53.9 µM
same,GI50,A549 NSCLC,19.3 µM
same,TGI,A549 NSCLC,96.8 µM
same,GI50,SR leukemia,26.3 µM
same,TGI,SR leukemia,72.1 µM
same,GI50,COLO 205 colon,39.8 µM
same,TGI,COLO 205 colon,> 100 µM
same,GI50,HOP-62 NSCLC,38.6 µM
same,TGI,HOP-62 NSCLC,> 100 µM
same,GI50,MDA-MB-435,21 µM
same,TGI,MDA-MB-435,49.5 µM
same,GI50,HS 578T breast,37.8 µM
same,TGI,HS 578T breast,> 100 µM
same,GI50,U251 CNS,30.5 µM
same,TGI,U251 CNS,> 100 µM
same,GI50,MOLT-4 leukemia,21.8 µM
same,TGI,MOLT-4 leukemia,70.1 µM
same,GI50,DU-145 prostate,38 µM
same,TGI,DU-145 prostate,> 100 µM
same,GI50,A498 renal,12.4 µM
same,TGI,A498 renal,25.7 µM
same,GI50,RPMI-8226 leukemia,12.5 µM
same,TGI,RPMI-8226 leukemia,34.9 µM
same,GI50,HL-60(TB) leukemia,24.1 µM
same,TGI,HL-60(TB) leukemia,50.9 µM
same,GI50,T-47D breast,44.1 µM
same,TGI,T-47D breast,> 100 µM
same,GI50,MALME-3M melanoma,17.9 µM
same,TGI,MALME-3M melanoma,43.1 µM
same,GI50,TK-10 renal,16.5 µM
same,TGI,TK-10 renal,50.5 µM
same,GI50,SNB-19 CNS,41.2 µM
same,TGI,SNB-19 CNS,> 100 µM
same,GI50,HT29 colon,21.6 µM
same,TGI,HT29 colon,51.2 µM
same,GI50,OVCAR-8 ovarian,33.5 µM
same,TGI,OVCAR-8 ovarian,> 100 µM
same,GI50,NCI/ADR-RES ovarian,27.6 µM
same,TGI,NCI/ADR-RES ovarian,> 100 µM
same,GI50,IGROV1 ovarian,40.3 µM
same,TGI,IGROV1 ovarian,> 100 µM
same,GI50,RXF 393 renal,19.1 µM
same,TGI,RXF 393 renal,52.7 µM
same,GI50,NCI-H522 lung,25.5 µM
same,TGI,NCI-H522 lung,> 100 µM
same,GI50,HCT-15 colon,30.7 µM
same,TGI,HCT-15 colon,> 100 µM
same,GI50,SK-OV-3 ovarian,34.4 µM
same,TGI,SK-OV-3 ovarian,> 100 µM
same,GI50,UO-31 renal,28.8 µM
same,TGI,UO-31 renal,> 100 µM
same,GI50,MCF7 breast,> 100 µM
same,TGI,MCF7 breast,> 100 µM
same,GI50,NCI-H226 lung,> 100 µM
same,TGI,NCI-H226 lung,> 100 µM
same,GI50,OVCAR-5 ovarian,33.2 µM
same,TGI,OVCAR-5 ovarian,> 100 µM
same,GI50,HCC-2998 colon,16.5 µM
same,TGI,HCC-2998 colon,32.5 µM
same,GI50,HCT-116 colon,17.6 µM
same,TGI,HCT-116 colon,34.3 µM
same,GI50,SF-295 CNS,18.6 µM
same,TGI,SF-295 CNS,46.6 µM
same,GI50,SF-268 CNS,33.8 µM
same,TGI,SF-268 CNS,> 100 µM
same,GI50,NCI-H460 lung,18.5 µM
same,TGI,NCI-H460 lung,55.8 µM
same,GI50,OVCAR-4 ovarian,31.9 µM
same,TGI,OVCAR-4 ovarian,76.7 µM
same,GI50,SN12C renal,21.3 µM
same,TGI,SN12C renal,48.1 µM
same,GI50,PC-3 prostate,17.7 µM
same,TGI,PC-3 prostate,51.1 µM
same,GI50,SK-MEL-28 melanoma,20.5 µM
same,TGI,SK-MEL-28 melanoma,53.7 µM
same,GI50,K-562 leukemia,20.4 µM
same,TGI,K-562 leukemia,51.7 µM
same,GI50,M14 melanoma,25.7 µM
same,TGI,M14 melanoma,66.6 µM
same,GI50,786-0 renal,32.5 µM
same,TGI,786-0 renal,> 100 µM
same,GI50,EKVX NSCLC,26.4 µM
same,TGI,EKVX NSCLC,> 100 µM
